The values that follow come from US10428066B2, “Imidazo[4,5-C]pyridine and pyrrolo[2,3-C]pyridine derivatives as SSAO inhibitors” (PROXIMAGEN, LLC, priority 2013, dated 2019).

In this test the target is purified recombinantly expressed human SSAO (Homo sapiens (Human), UniProt Q16853). As to the kind of experiment: SSAO enzyme inhibition assay (HRP-coupled hydrogen peroxide detection or 14C-benzaldehyde detection, benzylamine substrate). In kind it is biochemical. The note with it: human recombinant SSAO, RT. On the procedure:
All primary assays were performed at RT. with purified recombinantly expressed human SSAO. Enzyme was prepared essentially as described in Öhman et al. (Protein Expression and Purification 46 (2006) 321-331). In addition, secondary- and selectivity assays were performed using SSAO prepared from various tissues or purified rat recombinant SSAO. The enzyme activity was assayed with benzylamine as substrate by measuring either benzaldehyde production, using ^14C-labeled substrate, or by utilizing the production of hydrogen peroxide in a horseradish peroxidase (HRP) coupled reaction. Briefly, test compounds were dissolved in dimethyl sulfoxide (DMSO) to a concentration of 10 mM. Dose-response measurements were assayed by either creating 1:10 serial dilutions in DMSO to produce a 7 point curve or by making 1:3 serial dilutions in DMSO to produce 11 point curves.
In a horseradish peroxidase (HRP) coupled reaction, hydrogen peroxide oxidation of 10-acetyl-3,7-dihydroxyphenoxazine produced resorufin, which is a highly fluorescent compound (Zhout and Panchuk-Voloshina. Analytical Biochemistry 253 (1997) 169-174; Amplex® Red Hydrogen Peroxide/peroxidase Assay kit, Invitrogen A22188). Enzyme and compounds in 50 mM sodium phosphate, pH 7.4 were set to pre-incubate in flat-bottomed microtiter plates for approximately 15 min before initiating the reaction by addition of a mixture of HRP, benzylamine and Amplex reagent. Benzylamine concentration was fixed at a concentration corresponding to the Michaelis constant, determined using standard procedures. Fluorescence intensity was then measured at several time points during 1-2 h, exciting at 544 nm and reading the emission at 590 nm. For the human SSAO assay final concentrations of the reagents in the assay wells were: SSAO enzyme 1 ug/ml, benzylamine 100 uM, Amplex reagent 20 uM, HRP 0.1 U/mL and varying concentrations of test compound. The inhibition was measured as % decrease of the signal compared to a control without inhibitor (only diluted DMSO). The background signal from a sample containing no SSAO enzyme was subtracted from all data points. Data was fitted to a four parameter logistic model and IC50 values were calculated using the GraphPad Prism 4 or XLfit 4 programs.
SSAO activity was assayed using 14C-labeled benzylamine and analysed by measuring radioactive benzaldehyde. In a white 96-well optiplate (Packard), 20 uL of diluted test compound was pre-incubated at room temperature with 20 uL SSAO enzyme for approximately 15 min with continuous agitation. All dilutions were made with PBS. The reaction was initiated by adding 20 uL of the benzylamine substrate solution containing [7-14C] Benzylamine hydrochloride (CFA589, GE Healthcare). The plate was incubated for 1 h as above after which the reaction was stopped by acidification (10 uL 1M aq HCl). Then 90 uL Micro Scint-E solution (Perkin-Elmer) was added to each well and the plate was continuously mixed for 15 min. Phase separation occurred instantly and activity was read in a Topcount scintillation counter (Perkin-Elmer). In the final reaction well, the human recombinant SSAO concentration was 10 ug/ml. In order to optimize sensitivity, the substrate concentration was decreased as compared to the HRP coupled assay in order to get a higher fraction of radioactive product. In the human SSAO assay, benzylamine concentration was 40 uM (0.2 uCi/mL). Data was analysed as above.

Where a name gives a salt, the structure may show the parent alone.

In general, IC50 refers to the point on the concentration scale where inhibition reaches its midpoint.

purified recombinantly expressed human SSAO, sequence (Q16853 29-763): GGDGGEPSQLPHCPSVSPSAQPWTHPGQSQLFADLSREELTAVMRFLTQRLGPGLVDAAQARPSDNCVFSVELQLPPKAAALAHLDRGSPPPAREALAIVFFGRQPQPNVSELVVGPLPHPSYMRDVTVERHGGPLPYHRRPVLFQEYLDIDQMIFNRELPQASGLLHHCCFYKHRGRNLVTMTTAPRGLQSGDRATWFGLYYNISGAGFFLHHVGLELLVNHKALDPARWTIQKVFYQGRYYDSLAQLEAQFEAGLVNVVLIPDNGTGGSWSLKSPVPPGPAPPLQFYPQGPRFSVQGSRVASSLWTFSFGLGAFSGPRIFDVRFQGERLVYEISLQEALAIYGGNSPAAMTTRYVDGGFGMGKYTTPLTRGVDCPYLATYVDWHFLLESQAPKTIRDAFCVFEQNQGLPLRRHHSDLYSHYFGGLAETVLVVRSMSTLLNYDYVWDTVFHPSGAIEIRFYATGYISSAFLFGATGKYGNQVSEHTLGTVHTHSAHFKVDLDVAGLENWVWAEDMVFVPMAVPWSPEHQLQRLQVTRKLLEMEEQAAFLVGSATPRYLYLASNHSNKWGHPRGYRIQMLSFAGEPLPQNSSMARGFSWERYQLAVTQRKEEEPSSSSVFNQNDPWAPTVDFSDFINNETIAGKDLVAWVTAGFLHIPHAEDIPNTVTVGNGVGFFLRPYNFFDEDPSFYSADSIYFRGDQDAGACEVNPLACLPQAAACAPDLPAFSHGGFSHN

Regarding `Clc1ccc(-n2c(-c3cccnc3)nc3ccncc32)cc1` [Example 1, 3-[3-(4-Chlorophenyl)-3H-imidazo[4,5-c]pyridin-2-yl]pyridine], the IC50 is 0.2 to 1.2 µM. With `Clc1ccc(-n2c(-c3ccncc3)nc3ccncc32)cc1` [Example 2, 4-[3-(4-Chlorophenyl)-3H-imidazo[4,5-c]pyridin-2-yl]pyridine] the figure was 0.2 to 1.2 µM; with `Clc1ccc(-n2c(-c3ccc(CN4CCOCC4)nc3)nc3ccncc32)cc1` [Example 3, 4-({5-[3-(4-Chlorophenyl)-3H-imidazo[4,5-c]pyridin-2-yl]pyridin-2-yl}methyl)morpholine], 0.05 to 0.2 µM; with `Clc1ccc(-n2c(-c3cnc(N4CCOCC4)cn3)nc3ccncc32)cc1` [Example 5, 4-{5-[3-(4-Chlorophenyl)-3H-imidazo[4,5-c]pyridin-2-yl]pyrazin-2-yl}morpholine], 0.05 to 0.2 µM. For `O=C(c1ccc(-c2nc3ccncc3n2-c2ccc(Cl)cc2)cn1)N1CCOCC1` [Example 6, 4-({5-[3-(4-Chlorophenyl)-3H-imidazo[4,5-c]pyridin-2-yl]pyridin-2-yl}carbonyl)morpholine] the value was 0.2 to 1.2 µM; for `Clc1ccc(-n2c(-c3cnc(NC4CCOCC4)cn3)nc3ccncc32)cc1` [Example 7, 5-[3-(4-Chlorophenyl)-3H-imidazo[4,5-c]pyridin-2-yl]-N-(oxan-4-yl)pyrazin-2-amine], 0.05 to 0.2 µM. As for `Fc1ccc(-n2c(-c3cnc(NC4CC4)nc3)nc3ccncc32)cc1` [Example 10, N-Cyclopropyl-5-[3-(4-fluorophenyl)-3H-imidazo[4,5-c]pyridin-2-yl]pyrimidin-2-amine], the IC50 is 0.05 to 0.2 µM. `O=C1CN(c2ncc(-c3nc4ccncc4n3-c3ccc(F)cc3)cn2)CCN1` [Example 12, 4-{5-[3-(4-Fluorophenyl)-3H-imidazo[4,5-c]pyridin-2-yl]pyrimidin-2-yl}piperazin-2-one]: the IC50 fell in the range of 0.05 to 0.2 µM. With `O=C(NC1CC1)c1ccc(-c2nc3ccncc3n2-c2ccc(Cl)cc2)cn1` [Example 14, 5-[3-(4-Chlorophenyl)-3H-imidazo[4,5-c]pyridin-2-yl]-N-cyclopropylpyridine-2-carboxamide] the figure was 0.2 to 1.2 µM. For `Fc1ccc(-n2c(-c3ccc(C4CCOCC4)nn3)nc3ccncc32)cc1` [Example 15, 3-[3-(4-Fluorophenyl)-3H-imidazo[4,5-c]pyridin-2-yl]-6-(oxan-4-yl)pyridazine] the value was 0.05 to 0.2 µM; for `CS(=O)(=O)Nc1ccc(-c2nc3ccncc3n2-c2ccc(Cl)cc2)cn1` [Example 16, N-{5-[3-(4-Chlorophenyl)-3H-imidazo[4,5-c]pyridin-2-yl]pyridin-2-yl}methanesulfonamide], 0.2 to 1.2 µM.

On to `Clc1ccc(-n2c(-c3csc(N4CCNCC4)n3)nc3ccncc32)cc1` [Example 17, 1-{4-[3-(4-Chlorophenyl)-3H-imidazo[4,5-c]pyridin-2-yl]-1,3-thiazol-2-yl}piperazine dihydrochloride], for which the IC50 fell in the range of 0.2 to 1.2 µM. For `Clc1ccc(-n2c(-c3cnc(N4CCNCC4)o3)nc3ccncc32)cc1` [Example 18, 1-{5-[3-(4-Chlorophenyl)-3H-imidazo[4,5-c]pyridin-2-yl]-1,3-oxazol-2-yl}piperazine dihydrochloride], the IC50 lay within 0.05 to 0.2 µM. For `Clc1ccc(-n2c(-c3cnc(N4CCNCC4)s3)nc3ccncc32)cc1` [Example 19, 1-{5-[3-(4-Chlorophenyl)-3H-imidazo[4,5-c]pyridin-2-yl]-1,3-thiazol-2-yl}piperazine] the value was 0.05 to 0.2 µM. For `Fc1ccc(-n2c(-c3cnc(NC4CCOCC4)nc3)nc3ccncc32)cc1` [Example 20, 5-[3-(4-Fluorophenyl)-3H-imidazo[4,5-c]pyridin-2-yl]-N-(oxan-4-yl)pyrimidin-2-amine], the IC50 fell in the range of 0.05 to 0.2 µM.

Take `Cc1nc(N2CCOCC2)ncc1-c1nc2ccncc2n1-c1ccc(F)cc1` [Example 26, 4-{5-[3-(4-Fluorophenyl)-3H-imidazo[4,5-c]pyridin-2-yl]-4-methylpyrimidin-2-yl}morpholine]: the IC50 lay in the range of 0.05 to 0.2 µM. With `COc1nc(N2CCOCC2)ccc1-c1nc2ccncc2n1-c1ccc(F)cc1` [Example 28, 4-{5-[3-(4-Fluorophenyl)-3H-imidazo[4,5-c]pyridin-2-yl]-6-methoxypyridin-2-yl}morpholine] the figure was 0.05 to 0.2 µM. On to `Cc1cc(N2CCOCC2)nc(C)c1-c1nc2ccncc2n1-c1ccc(F)cc1` [Example 29, 4-{5-[3-(4-Fluorophenyl)-3H-imidazo[4,5-c]pyridin-2-yl]-4,6-dimethylpyridin-2-yl}morpholine], for which the IC50 was in the range of 0.2 to 1.2 µM. Consider `Fc1ccc(-n2c(-c3cnc(C4CC4)nc3)nc3ccncc32)cc1` [Example 30, 2-Cyclopropyl-5-[3-(4-fluorophenyl)-3H-imidazo[4,5-c]pyridin-2-yl]pyrimidine], for which the 50% inhibitory concentration (IC50) lay within 0.2 to 1.2 µM. With `Nc1ncc(-c2nc3ccncc3n2-c2ccc(Cl)cc2)cn1` [Example 31, 5-[3-(4-Chlorophenyl)-3H-imidazo[4,5-c]pyridin-2-yl]pyrimidin-2-amine] the figure was 0.2 to 1.2 µM; with `Cn1cc(-c2nc3ccncc3n2-c2ccc(Cl)cc2)ccc1=O` [Example 33, 5-[3-(4-Chlorophenyl)-3H-imidazo[4,5-c]pyridin-2-yl]-1-methyl-1,2-dihydropyridin-2-one], 0.2 to 1.2 µM; with `O=c1cc(-c2nc3ccncc3n2-c2ccc(Cl)cc2F)cc[nH]1` [Example 34, 4-[3-(4-Chloro-2-fluorophenyl)-3H-imidazo[4,5-c]pyridin-2-yl]-1,2-dihydropyridin-2-one], 0.05 to 0.2 µM.

With `O=c1ccc(-c2nc3ccncc3n2-c2ccc(Cl)cc2F)c[nH]1` [Example 35, 5-[3-(4-Chloro-2-fluorophenyl)-3H-imidazo[4,5-c]pyridin-2-yl]-1,2-dihydropyridin-2-one], the IC50 lay within 0.2 to 1.2 µM. With `Cc1ccc(-n2c(-c3cnc(N4C[C@@H](C)O[C@@H](C)C4)nc3)nc3ccncc32)nc1` [Example 36, (2R,6S)-2,6-Dimethyl-4-{5-[3-(5-methylpyridin-2-yl)-3H-imidazo[4,5-c]pyridin-2-yl]pyrimidin-2-yl}morpholine], the IC50 fell in the range of 0.05 to 0.2 µM. For `CC(C)OCCNc1ncc(-c2nc3ccncc3n2-c2ccc(F)cc2)cn1` [Example 38, 5-[3-(4-Fluorophenyl)-3H-imidazo[4,5-c]pyridin-2-yl]-N-[2-(propan-2-yloxy)ethyl]pyrimidin-2-amine] the value was 0.05 to 0.2 µM; for `CN1CCN(c2ncc(-c3nc4ccncc4n3-c3ccc(F)cc3)cn2)CC1=O` [Example 40, 4-{5-[3-(4-Fluorophenyl)-3H-imidazo[4,5-c]pyridin-2-yl]pyrimidin-2-yl}-1-methylpiperazin-2-one], 0.05 to 0.2 µM; for `CCOCCNc1ncc(-c2nc3ccncc3n2-c2ccc(F)cc2)cn1` [Example 42, N-(2-Ethoxyethyl)-5-[3-(4-fluorophenyl)-3H-imidazo[4,5-c]pyridin-2-yl]pyrimidin-2-amine], 0.05 to 0.2 µM.

As to `Clc1ccc(-n2c(-c3cnc[nH]3)nc3ccncc32)cc1` [Example 44, 5-[3-(4-Chlorophenyl)-3H-imidazo[4,5-c]pyridin-2-yl]-1H-imidazole], the IC50 fell in the range of 0.2 to 1.2 µM. For `CN1CCN(Cc2cccc(-c3nc4ccncc4n3-c3ccc(Cl)cc3)c2)CC1` [Example 45, 1-({3-[3-(4-Chlorophenyl)-3H-imidazo[4,5-c]pyridin-2-yl]phenyl}methyl)-4-methylpiperazine; formic acid] the value was 0.2 to 1.2 µM; for `Cc1ccc(-n2c(-c3cnc(N4CCOCC4)nc3)nc3ccncc32)c(F)c1` [Example 53, 4-{5-[3-(2-Fluoro-4-methylphenyl)-3H-imidazo[4,5-c]pyridin-2-yl]pyrimidin-2-yl}morpholine], 0.2 to 1.2 µM. `Fc1ccc(-n2c(-c3ccc(N4CCOCC4)nc3)nc3ccncc32)cc1` [Example 54, 4-{5-[3-(4-Fluorophenyl)-3H-imidazo[4,5-c]pyridin-2-yl]pyridin-2-yl}morpholine]: the IC50 was in the range of 0.2 to 1.2 µM.
